# Experimental data as given in patent US20150320704A1, “COMPOSITIONS AND METHODS FOR TREATMENT OF HAIR LOSS” (DS Healthcare Group, Inc., priority 2014, published 2015).
# Test system: male subjects experiencing active thinning-hair
# Test: Hair regrowth study, double blind, daily topical application for 90 days
# Type: in vivo, human
# Details: Example 2: study of Example 1 repeated, formulation of vehicle and one pimarene compound, lacking other pine resin compounds
# Procedure: A double blind study was performed on male subjects between the ages of 25 and 55 years who had been experiencing active thinning-hair. […] A global photograph of each subject was taken from the crown area and a second photograph was taken of the top of the head to track frontal areas. […] In addition to the pimarene compounds, the formulations contained pine resin compounds that are not calcium channel opening agents, including abietic acid, neoabietic acid, dehydroabietic acid, and palustric acid. The target sites of each subject were monitored over the 90 day period and photographs were again obtained at the end of this period and compared to those at baseline.
# The formulation lacks a pine resin compound other than a pimarene compound.
row,Compound,"hair thickness and growth, outcome of treatment"
1,CC[C@@]1(C)CC[C@H]2C(=CCC3[C@]2(C)CCC[C@]3(C)C(=O)O)C1 (some centres unmarked) [dihydroisopimaric acid],improvement in hair thickness and growth in a majority of the subjects
2,CC[C@@]1(C)CC[C@H]2C(=CC[C@H]3[C@](C)(CO)CCC[C@]23C)C1 [dihydroisopimarinol],improvement in hair thickness and growth in a majority of the subjects
3,C=C[C@@]1(C)CC[C@H]2C(=CC[C@@H]3[C@]2(C)CCC[C@@]3(C)C(=O)O)C1 [isopimaric acid],improvement in hair thickness and growth in a majority of the subjects
4,C=C[C@@]1(C)C=C2CC[C@@H]3[C@](C)(CCC[C@@]3(C)C(=O)O)[C@H]2CC1 [pimaric acid],improvement in hair thickness and growth in a majority of the subjects
5,C=C[C@]1(C)C=C2CC[C@@H]3[C@](C)(CCC[C@@]3(C)C(=O)O)[C@H]2CC1 [sandaracopimaric acid],improvement in hair thickness and growth in a majority of the subjects
6,dihydropimaric acid,improvement in hair thickness and growth in a majority of the subjects

# Same assay, conditions: Example 3: study of Example 1 repeated, formulation of vehicle and a potassium channel opening agent other than pimarene compounds
row,Compound,"hair thickness and growth, outcome of treatment"
1,COc1ccc(Cl)cc1[C@]1(F)C(=O)Nc2cc(C(F)(F)F)ccc21 [BIAS-204352],improvement in hair thickness and growth in a majority of the subjects
2,FC(F)(F)C(Cl)Br (centres unmarked) [halothane],improvement in hair thickness and growth in a majority of the subjects
3,CC(C(O)c1ccc(O)cc1)N1CCC(Cc2ccccc2)CC1 (centres unmarked) [ifenprodil],improvement in hair thickness and growth in a majority of the subjects

# Test system: balding macaques
# Test: not given
# Details: topical application, 20-week treatment period; cited from earlier work
row,Compound,scalp hair growth
1,CCC(C)(C)N=C(NC#N)Nc1cccnc1 [P-1075],stimulated hair growth
2,"CNC(=S)[C@]1(c2cccnc2)CCCC[S+]1[O-] (some centres unmarked) [RP-49,356]",not effective in promoting hair growth
3,CC1(C)Oc2ccc(C#N)cc2C(N2CCCC2=O)C1O (centres unmarked) [cromakalin],stimulated hair growth

# Test system: humans
# Test: not given
# Details: cited from earlier work
row,Compound,hypertrichosis
1,CC1=NS(=O)(=O)c2cc(Cl)ccc2N1 [diazoxide],cause hypertrichosis
2,CC(N/C(=N\C#N)Nc1ccncc1)C(C)(C)C (centres unmarked) [pinacidil],cause hypertrichosis
